Assay results: US11045559B2, “Reactive fluorogenic compound and nanocomposite for sensing hydrogen sulfide comprising the same” (KOREA INSTITUTE OF SCIENCE AND TECHNOLOGY, priority 2017, dated 2021)

Test: Fluorescence response and chemoselectivity of ABR in organic media
Description: Specifically, in order to devise a H2S-responsive fluorogenic molecular probe, the present inventors have adopted a reaction strategy based on the chemoselective reduction of aryl azides to amines, which is triggered through nucleophilic attack by a hydrosulfide anion (HS^−), which is the main active form of H2S under physiological conditions. In the probe design, the 4-azidobenzyl group was selected as a self-immolative aryl azide linker, and it was linked to a fluorescent emitter, resorufin, at its 7-hydroxy position. Since the 7-hydroxy substituent is known to efficiently quench the fluorescence of resorufin, the designed molecular probe, azidobenzylresorufin (ABR), is anticipated to be nonfluorescent and able to undergo self-immolative cleavage upon reaction with HS^−, to release a 1,6-elimination product (azaquinone methide) and resorufin with fluorescence recovery. […] Along the resulting fluorescence spectrum, the ^1H-NMR analysis confirmed that the fluorescent product is resorufin recovered through the self-immolative release from ABR after reduction by H2S (FIG. 3).

[N-]=[N+]=Nc1ccc(COc2ccc3nc4ccc(=O)cc-4oc3c2)cc1 [ABR, 7-(4-azidobenzyloxy)-3H-phenoxazin-3-one]
fluorescence response toward H2S (NaHS present vs absent, FIG. 2a): fluorescence turn-on response toward H2S
chemoselectivity in spectroscopic response (reactive sulfur, oxygen, nitrogen species 100 μM (GSH 1 mM) in acetonitrile, FIG. 2b): responded only to H2S
